Experiments:
[1] = biological target: T1, GST-tagged FAK (Homo sapiens, UniProt Q05397); assay: Biochemical assay for FAK activity, Assay 1: phosphorylation of peptide substrate with radio-labeled ATP; conditions: 5 μM ATP, 30 min pre-incubation; for IC50: read-out: Assay 1 FAK TRF PXC50 (converted)
T1 construct: purchased Invitrogen PV3832
Method: GST-tagged (glutathione S-transferase-tagged) FAK was purchased from Invitrogen (PV3832) (www.invitrogen.com). […] To measure inhibitors of FAK, compounds were first prepared as a 10× stock in 10% DMSO. […] A 6-nM GST-FAK solution was prepared in 1.1× reaction buffer containing 44 mM HEPES, pH=7.2, 11 mM MgCl2, 2.2 mM MnCl2, 1.1 mM DTT and 0.011% Tween-20. Then, 20 μL of the 6 nM GST-FAK solution were pre-incubated with the compounds for 30 min at room temperature. […] The reaction was allowed to proceed for 90 min before being quenched with 40 μL of 1% H3PO4. A portion of the reaction mixture (60 μL) was transferred to a phospho-cellulose filter plate (Millipore; www.millipore.com, MAPHNOB50) and incubated for 20 minutes. The plate was filtrated, washed three times using 150 μL of 0.5% H3PO4 and dried at 50° C. for 30 min. After the addition of 60 μL Microscint-20 to the plate, radioactivity was measured using a TopCount (PerkinElmer; www.PerkinElmer.com).

[2] = biological target: T2, Full length Human FAK (Flag-His-TEV-FAK1) (Homo sapiens, UniProt Q05397); assay: Biochemical assay for FAK activity, Assay 2: LANCE Ultra ULight peptide phosphorylation, 665 nm/615 nm ratio; conditions: Flag-His-TEV-FAK1, 10 μM ATP, 30 min pre-incubation; for IC50: read-out: Assay 2 FAK H 31284A TRF PXC50 (converted)
T2 construct: Full length Human FAK was expressed using baculovirus in Sf9 cells; made in house; host or cells: baculovirus in Sf9 cells
Method: Flag-His-TEV-FAK1 was prepared in-house. Full length Human FAK was expressed using baculovirus in Sf9 cells with N-terminal FLAG-6×His tags followed by a TEV cleavage site (FLAG-6×His-TEV-huFAK). […] To measure inhibitors of FAK, compounds were first prepared as a 100× stock in 100% DMSO. […] After incubating for 120 minutes at room temperature, the reaction is quenched by adding 5 uL of 20 mM EDTA and 5nMEu-Anti-pTyr antibody in 1× LANCE detection buffer.

T2 sequence (Q05397 whole entry): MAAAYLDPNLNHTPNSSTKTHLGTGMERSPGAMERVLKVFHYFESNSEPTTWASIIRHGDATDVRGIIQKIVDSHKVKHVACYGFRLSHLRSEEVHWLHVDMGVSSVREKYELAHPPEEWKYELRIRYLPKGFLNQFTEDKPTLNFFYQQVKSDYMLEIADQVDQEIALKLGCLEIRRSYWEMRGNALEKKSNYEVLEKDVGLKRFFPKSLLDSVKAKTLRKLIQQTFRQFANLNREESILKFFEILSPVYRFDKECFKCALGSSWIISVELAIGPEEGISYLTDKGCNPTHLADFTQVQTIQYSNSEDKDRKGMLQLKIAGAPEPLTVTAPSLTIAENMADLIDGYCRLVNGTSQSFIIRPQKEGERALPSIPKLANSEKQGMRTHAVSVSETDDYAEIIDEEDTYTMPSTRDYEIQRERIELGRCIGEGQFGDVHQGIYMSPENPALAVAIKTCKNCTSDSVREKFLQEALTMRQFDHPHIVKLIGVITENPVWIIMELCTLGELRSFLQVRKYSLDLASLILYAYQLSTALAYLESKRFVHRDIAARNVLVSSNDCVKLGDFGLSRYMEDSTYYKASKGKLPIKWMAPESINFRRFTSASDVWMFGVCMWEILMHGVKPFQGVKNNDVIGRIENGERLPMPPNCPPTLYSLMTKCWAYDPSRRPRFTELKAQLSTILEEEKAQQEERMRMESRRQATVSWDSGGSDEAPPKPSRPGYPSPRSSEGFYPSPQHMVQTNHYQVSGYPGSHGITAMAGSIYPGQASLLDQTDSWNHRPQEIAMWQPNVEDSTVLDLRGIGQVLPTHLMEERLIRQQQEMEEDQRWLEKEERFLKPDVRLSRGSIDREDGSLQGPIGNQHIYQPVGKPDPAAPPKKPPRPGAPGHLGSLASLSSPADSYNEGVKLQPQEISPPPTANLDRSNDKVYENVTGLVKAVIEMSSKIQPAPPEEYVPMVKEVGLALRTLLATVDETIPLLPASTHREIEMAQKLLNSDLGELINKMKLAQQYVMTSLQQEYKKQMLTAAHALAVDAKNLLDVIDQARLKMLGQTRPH
T1 sequence (Q05397 whole entry): as above

Compound: 2-({5-Chloro-2-[(1,3-dimethyl-1H-pyrazol-4-yl)amino]-4-pyridinyl}amino)-N-methylbenzamide [Example 27]
- Assay 1 FAK TRF PXC50 [1]: 8.7
- Assay 2 FAK H 31284A TRF PXC50 [2]: 8.1

Compound: 2-({5-Chloro-2-[(1-ethyl-1H-pyrazol-5-yl)amino]-4-pyridinyl}amino)-4,5-difluoro-N-methylbenzamide [Example 10]
- Assay 1 FAK TRF PXC50 [1]: 9.1
- Assay 2 FAK H 31284A TRF PXC50 [2]: 8

Compound: 2-({5-Chloro-2-[(1-ethyl-1H-pyrazol-5-yl)amino]-4-pyridinyl}amino)-N-ethylbenzamide [Example 44]
- Assay 1 FAK TRF PXC50 [1]: 8.2
- Assay 2 FAK H 31284A TRF PXC50 [2]: 7.2

Compound: CNC(=O)c1ccccc1Nc1cc(Nc2cc(-c3ccccc3)nn2C)ncc1Cl [Example 1, 2-[5-Chloro-2-(2-methyl-53-ylamino)-pyridin-4-ylamino]-N-methyl-benzamide]
- IC50 [1]: 2 nM
- IC50 [2]: 15.8 nM

Compound: CNC(=O)c1ccccc1Nc1cc(Nc2ccnn2C)ncc1Cl [Example 2, 2-({5-Chloro-2-[(1-methyl-1H-pyrazol-5-yl)amino]-4-pyridinyl}amino)-N-methylbenzamide]
- IC50 [1]: 1.58 nM
- IC50 [2]: 10 nM

Compound: CCn1nccc1Nc1cc(Nc2ccccc2C(=O)NC)c(Cl)cn1 [Example 3, 2-({5-Chloro-2-[(1-ethyl-1H-pyrazol-5-yl)amino]-4-pyridinyl}amino)-N-methylbenzamide]
- IC50 [1]: 0.631 nM
- IC50 [2]: 5.01 nM

Compound: CNC(=O)c1ccccc1Nc1cc(Nc2cc(C)nn2C(C)C)ncc1Cl [Example 4, 2-[(5-Chloro-2-{[3-methyl-1-(1-methylethyl)-1H-pyrazol-5-yl]amino}-4-pyridinyl)amino]-N-methylbenzamide]
- IC50 [1]: 1 nM
- IC50 [2]: 6.31 nM

Compound: CNC(=O)c1ccccc1Nc1cc(Nc2cc(C)nn2C)ncc1Cl [Example 5, 2-({5-Chloro-2-[(1,3-dimethyl-1H-pyrazol-5-yl)amino]-4-pyridinyl}amino)-N-methylbenzamide]
- IC50 [1]: 1 nM
- IC50 [2]: 7.94 nM

Compound: CNC(=O)c1ccccc1Nc1cc(Nc2cc(C3CC3)nn2C)ncc1Cl [Example 6, 2-({5-Chloro-2-[(3-cyclopropyl-1-methyl-1H-pyrazol-5-yl)amino]-4-pyridinyl}amino)-N-methylbenzamide]
- IC50 [1]: 1.26 nM
- IC50 [2]: 5.01 nM

Compound: CNC(=O)c1cc(F)ccc1Nc1cc(Nc2cc(C)nn2C)ncc1Cl [Example 7, 2-({5-Chloro-2-[(1,3-dimethyl-1H-pyrazol-5-yl)amino]-4-pyridinyl}amino)-5-fluoro-N-methylbenzamide]
- IC50 [1]: 0.794 nM
- IC50 [2]: 10 nM

Compound: CNC(=O)c1cccc(F)c1Nc1cc(Nc2cc(C)nn2C)ncc1Cl [Example 8, 2-({5-Chloro-2-[(1,3-dimethyl-1H-pyrazol-5-yl)amino]-4-pyridinyl}amino)-3-fluoro-N-methylbenzamide]
- IC50 [1]: 0.631 nM
- IC50 [2]: 5.01 nM

Compound: CCn1nc(C(=O)O)cc1Nc1cc(Nc2ccccc2C(=O)NC)c(Cl)cn1 [Example 18, 5-{[5-Chloro-4-({2-[(methylamino)carbonyl]phenyl}amino)-2-pyridinyl]amino}-1-ethyl-1H-pyrazole-3-carboxylic acid]
- IC50 [1]: 10 nM

Compound: CNC(=O)c1ccccc1Nc1cc(Nc2cc(C)nn2CCN(C)C)ncc1C(F)(F)F [Example 31, 2-{[2-({1-[2-(Dimethylamino)ethyl]-3-methyl-1H-pyrazol-5-yl}amino)-5-(trifluoromethyl)-4-pyridinyl]amino}-N-methylbenzamide]
- IC50 [1]: 3.98 nM

Compound: CNC(=O)c1ccccc1Nc1cc(Nc2cc(C)nn2-c2ccccc2)ncc1C(F)(F)F [Example 33, N-Methyl-2-{[2-[(3-methyl-1-phenyl-1H-pyrazol-5-yl)amino]-5-(trifluoromethyl)-4-pyridinyl]amino}benzamide]
- IC50 [1]: 0.398 nM

Compound: CNC(=O)c1ccccc1Nc1cc(Nc2cc(C)nn2CCO)ncc1C(F)(F)F [Example 34, 2-{[2-{[1-(2-hydroxyethyl)-3-methyl-1H-pyrazol-5-yl]amino}-5-(trifluoromethyl)-4-pyridinyl]amino}-N-methylbenzamide]
- IC50 [1]: 0.501 nM

Compound: CCn1nc(C)cc1Nc1cc(Nc2cc(F)ccc2C(=O)NC)c(Cl)cn1 [Example 88, 2-({5-Chloro-2-[(1-ethyl-3-methyl-1H-pyrazol-5-yl)amino]-4-pyridinyl}amino)-4-fluoro-N-methylbenzamide]
- IC50 [2]: 2.51 nM

Compound: CNC(=O)c1cccc(F)c1Nc1cc(Nc2cc(CCO)nn2C)ncc1Cl [Example 89, 2-[(5-Chloro-2-{[3-(2-hydroxyethyl)-1-methyl-1H-pyrazol-5-yl]amino}-4-pyridinyl)amino]-3-fluoro-N-methylbenzamide]
- IC50 [2]: 10 nM

Compound: CCn1nc(CCO)cc1Nc1cc(Nc2c(F)cccc2C(=O)NC)c(Cl)cn1 [Example 90, 2-[(5-Chloro-2-{[1-ethyl-3-(2-hydroxyethyl)-1H-pyrazol-5-yl]amino}-4-pyridinyl)amino]-3-fluoro-N-methylbenzamide]
- IC50 [2]: 10 nM

Compound: CNC(=O)c1cccc(F)c1Nc1cc(Nc2cc(CN(C)C)nn2C)ncc1Cl [Example 91, 2-{[5-Chloro-2-({3-[(dimethylamino)methyl]-1-methyl-1H-pyrazol-5-yl}amino)-4-pyridinyl]amino}-3-fluoro-N-methylbenzamide]
- IC50 [2]: 251 nM

Compound: CCn1nc(CN(C)C)cc1Nc1cc(Nc2c(F)cccc2C(=O)NC)c(Cl)cn1 [Example 92, 2-{[5-Chloro-2-({3-[(dimethylamino)methyl]-1-ethyl-1H-pyrazol-5-yl}amino)-4-pyridinyl]amino}-3-fluoro-N-methylbenzamide]
- IC50 [2]: 501 nM

Compound: [2H]C([2H])(O)c1cc(Nc2cc(Nc3c(F)cccc3C(=O)NC)c(Cl)cn2)n(C)n1 [Example 93, 2-[(5-Chloro-2-{[3-(hydroxymethyl)-1-methyl-1H-pyrazol-5-yl]amino}-4-pyridinyl)amino]-3-fluoro-N-methylbenzamide-d2]
- IC50 [2]: 10 nM

Compound: [2H]C([2H])(O)c1cc(Nc2cc(Nc3c(F)cccc3C(=O)NC)c(Cl)cn2)n(CC)n1 [Example 94, 2-[(5-Chloro-2-{[1-ethyl-3-(hydroxymethyl)-1H-pyrazol-5-yl]amino}-4-pyridinyl)amino]-3-fluoro-N-methylbenzamide-d2]
- IC50 [2]: 3.98 nM

Compound: CCn1nc(C)cc1Nc1cc(Nc2c(F)cccc2C(=O)NOC)c(Cl)cn1 [Example 95a, 2-({5-Chloro-2-[(1-ethyl-3-methyl-1H-pyrazol-5-yl)amino]-4-pyridinyl}amino)-3-fluoro-N-(methyloxy)benzamide]
- IC50 [2]: 1.58 nM

Compound: CONC(=O)c1cccc(F)c1Nc1cc(Nc2cc(C)nn2C)ncc1Cl [Example 95b, 2-({5-Chloro-2-[(1,3-dimethyl-1H-pyrazol-5-yl)amino]-4-pyridinyl}amino)-3-fluoro-N-(methyloxy)benzamide]
- IC50 [2]: 2 nM

Compound: CCn1nc(CO)cc1Nc1cc(Nc2c(F)cccc2C(=O)NOC)c(Cl)cn1 [Example 95c, 2-[(5-Chloro-2-{[1-ethyl-3-(hydroxymethyl) 1H-pyrazol-5-yl]amino}-4-pyridinyl)amino]-3-fluoro-N-(methyloxy)benzamide]
- IC50 [2]: 12.6 nM

Compound: CONC(=O)c1cccc(F)c1Nc1cc(Nc2cc(CO)nn2C)ncc1Cl [Example 95d, 2-[(5-Chloro-2-{[3-(hydroxymethyl)-1-methyl-1H-pyrazol-5-yl]amino}-4-pyridinyl)amino]-3-fluoro-N-(methyloxy)benzamide]
- IC50 [2]: 20 nM

Compound: CCn1nc(CN(C)C)cc1Nc1cc(Nc2c(F)cccc2C(=O)NOC)c(Cl)cn1 [Example 95e, 2-{[5-Chloro-2-({3-[(dimethylamino)methyl]-1-ethyl-1H-pyrazol-5-yl}amino)-4-pyridinyl]amino}-3-fluoro-N-(methyloxy)benzamide]
- IC50 [2]: 158 nM

Compound: CONC(=O)c1cccc(F)c1Nc1cc(Nc2cnn(C)c2C)ncc1Cl [Example 95f, 2-({5-Chloro-2-[(1,5-dimethyl-1H-pyrazol-4-yl)amino]-4-pyridinyl}amino)-3-fluoro-N-(methyloxy)benzamide]
- IC50 [2]: 2 nM

Compound: Cc1cc(Nc2cc(Nc3ccc(F)cc3C(=O)N3CCCN3)c(Cl)cn2)n(C(C)C)n1 [Example 96a, 5-Chloro-N^4-[4-fluoro-2-(1-pyrazolidinylcarbonyl)phenyl]-N^2-[3-methyl-1-(1-methylethyl)-1H-pyrazol-5-yl]-2,4-pyridinediamine]
- IC50 [2]: 20000 nM

Compound: Cc1cc(Nc2cc(Nc3ccc(F)cc3C(=O)N3CCCN3C)c(Cl)cn2)n(C(C)C)n1 [Example 96b, 5-Chloro-N^4-{4-fluoro-2-[(2-methyl-1-pyrazolidinyl)carbonyl]phenyl}-N^2-[3-methyl-1-(1-methylethyl)-1H-pyrazol-5-yl]-2,4-pyridinediamine]
- IC50 [2]: 2000 nM

Source: patent publication US20140155410A1 (GlaxoSmithKline LLC, priority 2008, published 2014)
